{"source": "patent US20100173983A1", "about": "“METHOD FOR INDUCING AUTOPHAGY” (priority 2007, published 2010)", "assay_type_in_all_cases": "cell-based, Human", "key": {"[1]": {"tested_on": "CP70 ovarian cancer cells", "test": "DNA fragmentation, PI/Hoechst FACS analysis", "conditions": "10 μM for 24 hr; 1.4% in the absence of Cpd 1", "experimental": "FIG. 7. Cpd 1 induces DNA degradation in CP70 cells. A, No treatment control. B, Cpd 1-treated cells. CP70 ovarian cancer cells were incubated with 10 μg/ml Cpd 1 for […] and fixed. Cells were co-stained with propidium iodide and Hoechst A and incidence of PI labelled cells indicative of DNA degradation in quandrant 2 was assessed by FACS analysis.\nThe inventors then determined whether treatment with Cpd 1 induced DNA fragmentation. Ovarian cancer cells were treated with Cpd 1 (10 μM) for 24 hr and gently trypsinised. Trypsinized cells were combined with non-adherent cells, rinsed once in medium containing serum and then resuspended at a concentration of 10^7 cells/ml in PBS. Cells were then fixed by adding 0.5 ml of cell suspension to 4.5 ml 70% ice-cold ethanol. After 2 h on ice, cells were pelleted and the ethanol was thoroughly decanted. The cell pellet was rinsed in 5 ml PBS, centrifuged, resuspended in 1 ml of PBS containing 0.1% Triton X-100, 0.2 mg/ml DNase-free RNase A, and 20 μg/ml propidium iodide (PI) and 2 μg/ml hoechst-A and incubated at 37° C. for 15 min before FACS analysis. Cells were analyzed using Becton Dickinson Cell Quest FACStation software (version 3.0.1) operating a Becton Dickinson FACSCalibur FACS machine. Gating was used to remove debris and doublets before collection. Results were quantitated using ModFit LT (1999; Topsham, Me.: Verity Software House, Inc.). […]"}, "Bax": {"tested_on": "Bax", "test": "Western blot of R-182 mitochondrial extracts, Bax", "conditions": "R-182 cells, 5 μg/ml over 24 hr", "excerpt": "(§1) FIG. 8. Molecular evidence of autophagic cell death in R-182 ovarian cancer cells induced by Cpd 1. […] B, Beclin 1 binds to Bcl-2. Immunoprecipitation study using mitochondrial preparations of cells pre-treated with Cpd 1 as stated in A, and subjected to beclin 1 immunoprecitation. Immunoprecipitated fractions were washed in PBS, subjected to SDS-PAGE, blotted and then probed with a mouse anti-Bcl-2 antibody. Actin and Topo-1 were used as loading control. C, Depolarized cells resulting from over-expression of Bax and Beclin 1 following administration of Cpd 1. Cells were treated with Cpd 1 as described in A, pelleted and washed in HBSS and the cell pellet resuspended in the reaction buffer for JC-1 (Biovision, Inc. MitoCapture™ K250-100). HBSS-washed cells were analysed by flow cytometry (λexcit=488 nm and (λemit=530 nm for green fluorescence (depolarized) or 590 nm for red fluorescence (polarized). 10,000 gated events were measured with a BD FACScalibur. Results were expressed as mean±standard deviation (n=3).\n(§2) After treatment with Cpd 1, protein was extracted from cells and measured as previously described (Kamsteeg et al., 2003). For separation of the cytoplasmic and mitochondrial fractions, cell pellets were processed using the ApoAlert Cell Fractionation kit (Promega) according to the manufacturer's instructions. […]"}, "R182 cells": {"tested_on": "R182 cells", "test": "Phase-contrast microscopy, vacuole formation", "conditions": "5 μg/ml over 4 hr and 8 hr", "experimental": "FIG. 6. Phase-contrast images of R182 cells treated with vehicle (NT) or 5 μg/ml Cpd 1 over 4 hr and 8 hr (A).\nR182 cells treated with Cpd 1 were observed microscopically to determine if morphological and structural alterations to cellular integrity took place. Cells treated with Cpd 1 were hyper-vacuolated (see FIG. 6) and the plasma membrane appeared to bleb or form folds. […] These morphological changes observed in Cpd 1 treated cells are considered the hall mark of autophagy with the increased vacuoles formation thought to result in autophagosomes which eventually fuse with lysosomes to form autolysosomes. These structures contain catabolic hydrolases which are released into the cytoplasm when the lysosomal membrane becomes compromised."}, "caspase 8": {"tested_on": "caspase 8", "test": "Caspase-Glo 8 assay in R182 cells", "conditions": "R182 ovarian cancer explants; dose response and duration of exposure (5 μg/ml, 0-25 hr)", "experimental": "FIG. 4. Comparative induction of caspase 8 in R182 ovarian cancer explants by Cpd 1 and dehydroequol using either dose response (A) or duration of exposure (B). Caspase 8 activity was assessed using the Caspase-Glo 8 assay.\n(§3) For caspase activity assays, 10 μg of protein in 50 μL total volume was mixed with 50 μL of equilibrated Caspase-Glo 3/7, 8, or 9 reagents (Promega). After incubating at room temperature for 1 hour, luminescence was measured using TD 20/20 Luminometer (Turner Designs, Sunnyvale, Calif.). Blank values were subtracted and fold-increase in activity was calculated based on activity measured from untreated cells. Each sample was measured in triplicate."}, "ovarian cancer cells": {"tested_on": "ovarian cancer cells", "test": "Cell viability in presence of pan caspase inhibitor ZVAD-FMK", "conditions": "ZVAD-FMK 0.5 μg/ml", "experimental": "FIG. 5. Comparative cell viability plots of dehydroequol (A) and Cpd 1 (B) treated cells in the presence and absence of the pan caspase inhibitor ZVAD-FMK (0.5 μg/ml).\nCell viability was evaluated using the CellTiter 96 Aqueous One Solution Cell Proliferation Assay (Promega, Madison, Wis.) according to the manufacturer's instructions. The values from the treated cells were compared with the values generated from the untreated cells and reported as percent viability. Each experiment was performed in triplicate."}, "caspase 3": {"tested_on": "caspase 3", "test": "Caspase-Glo 3/7 assay in R182 cells", "conditions": "R182 ovarian cancer explants; dose response and duration of exposure (5 μg/ml, 0-25 hr)", "experimental": "FIG. 2. Comparative induction of caspase 3 in R182 ovarian cancer explants by Cpd 1 and dehydroequol using either dose response (A) or duration of exposure (B). Caspase 3 activity was assessed using the Caspase-Glo 3/7 assays.\nas §3"}, "endonuclease G": {"tested_on": "endonuclease G", "test": "Western blot of R-182 nuclear preparations, endonuclease G", "conditions": "R-182 cells, 5 μg/ml over 24 hr", "excerpt": "as §1, §2"}}}
{"molecule": "COc1ccc([C@H]2c3ccc(O)c(C)c3OC[C@H]2c2ccc(O)cc2)cc1", "note": "(stereo in doubt) [Cpd 1, 3-(4-hydroxyphenyl)-4-(4-methoxyphenyl)-8-methylchroman-7-ol]", "values": [{"measurement": "DNA fragmentation", "setting": "[1]", "value": 95, "unit": "%"}, {"measurement": "expression of Bax in mitochondrial extracts", "setting": "Bax", "value": "markedly upregulated over time"}, {"measurement": "vacuole formation", "setting": "R182 cells", "value": "vacuole formation is clearly evident"}, {"measurement": "caspase 8 activity", "setting": "caspase 8", "value": "did not induce caspase 8 activity"}, {"measurement": "cell death in the presence of pan caspase inhibitor ZVAD-FMK", "setting": "ovarian cancer cells", "value": "cell death proceeded"}, {"measurement": "caspase 3 activity", "setting": "caspase 3", "value": "did not induce caspase 3 activity"}, {"measurement": "endonuclease G in nuclear preparations", "setting": "endonuclease G", "value": "upregulated"}]}
